Data as given in patent US20230212517A1, “METHODS FOR GENERATING HEMATOPOIETIC STEM CELLS” (The Brigham and Women's Hospital, Inc., priority 2018, published 2023).

Assays:
E11.5 AGM cells [1] = assay: RNA-sequencing / whole transcriptome analyses of treated E11.5 AGM cells; assay type: cell-based, mouse; details: Venn comparison of up-regulated genes, endothelial-to-HSC transition
Description: RNA-sequencing analyses were performed to measure gene expression patterns in mouse AGM treated with cyclic strain or pharmacological modulators. Using computational algorithms, hierarchical clustering was performed of differentially expressed genes as well as measured their overrepresented biological processes and pathways. Gene expression clusters of differentially expressed genes were analyzed and their mean expression level across cell populations compared. Next, Venn comparison of up- and down-genes was constructed to analyze candidate(s) important for cyclic strain- or pharmacological modulator(s)-mediated the endothelial-to-HSC transition. Furthermore, Dnmt3b and Dnmt3a protein expressions were analyzed in nuclear fractions of mouse AGM cells using EPIQUIK methyltransferase assay kits. Data are presented as mean±s.d. unless otherwise noted. Statistical analyses were performed by paired or un-paired Student's t-tests. […]
Total RNA from E11.5 mouse AGM explant cultures was isolated (control, stretch, Yoda1 and 4αPDD conditions) with the RNAEASY MiniKit (QIAGEN). […] We mapped our sequenced read fragments to the mouse reference genome GRCm38 (ENSEMBL release 69) using the Genomic Short-Read Nucleotide Alignment program (version 2012 Jul. 20). […] Gene expression clusters of differentially expressed genes were analyzed and their mean expression level across cell populations compared. […]

E11.5 AGM cells [2] = assay: Hematopoietic colony formation unit (CFU) and FACS assays on E11.5 AGM cells; assay type: cell-based, mouse; details: substance alone vs. control
Description: Pulsating blood vessels like conditions were stimulated in vitro using FLEXCELL FX-4000 cell stretching bioreactor machine. To analyze roles of pharmacological targets in regulating the endothelial-to-HSC transition, mouse embryo-derived AGM or whole mouse embryo were exposed ex vivo with biomechanical stretching, chemicals, or drugs. Next, hematopoietic colony formation assays were performed by incubating mouse AGM-derived cells in StemCell M3434 media for seven days. Serial transplantation of AGM-derived HSCs in lethally irradiated SJL mice were performed. The stem cell frequency upon biomechanical stretching was analyzed using a limiting dilution assay. To characterize properties of AGM-HSC-derived blood cells in primary transplants, percentage chimerism and reconstitution was measured using FACS, globin transcripts were analyzed using quantitative reverse transcriptase-PCR, myeloperoxidase amount was measured using PICOKINE ELISA kit, TCR-β rearrangement was analyzed using PCR for TCR-β locus, pre-immune IG detection was analyzed using Thermo-Fisher Mouse Ig Isotyping kit, and delayed-type hypersensitivity was analyzed by injecting sheep RBC (Rockland Immunochemicals) in the footpad of pre-sensitized mice.
E11.5 AGM were harvested from C57BL6/J Cd45.2 mouse embryos, and a single cell suspension of a three-embryo equivalent of cells was seeded on each well of a BioFlex six-well culture plate (FlexCell). We cultured cells overnight with the application of cyclic strain (Flexcell® FX4000™ Tension System) and/or treatment with chemical modulators (25-50 μM Yoda1, 1 μM Nanaomycin, 100 μM GdCl3, 1 uM GsMTx4, 5-20 μM 4αPDD, 10 uM GSK205). Next, harvested cells were used to perform transplant, fluorescence-activated cell sorting (FACS) analysis, and colony-forming unit (CFU) assays.
E11.5 mouse embryos were harvested from the uterus of the time-mated pregnant female, into sterile glass vials containing FBS, 1 mM glucose, 1% Penicillin-Streptomycin, and/or the selected chemical modulator (25-50 μM Yoda1, 1 μM Nanaomycin, 5-20 μM 4αPDD, or 10 uM GSK205). We placed glass vials in the ex vivo incubator (BTC Engineering, Cambridge, UK) consisting of a roller apparatus (rotating ˜30 rpm), constant gas supply (21% O2, 5% CO2, balance N2) and constant temperature at 37° C. After 24 hours, AGM were harvested to analyze the formation of hematopoietic cells by FACS and CFU assays.
For CFU assays, cells from AGM explant or ex vivo were plated in METHOCULT GF M3434 media (StemCell Technologies). Seven days after seeding, we analyzed their capacity to make granulocyte, erythroid, macrophage, megakaryocyte (GEMM), granulocyte macrophage (GM), granulocyte (G), macrophage (M), and erythroid (E) colonies.
AGM cells from explants and ex vivo were stained with Sca1-Pacific-Blue (E13-161.7, Biolegend) and Flk1-APC-Cy7 (Avas 12α1, BD). Blood from transplanted mice was stained with the following antibody cocktail: Cd45.2-Pacific-Blue (104, Biolegend), Cd45.1-FITC (A20, Biolegend), Cd3-PE (145-2C11, Biolegend), Cd8-PE (53-6.7, Biolegend), Mac1-APC (M1/70, Biolegend), Gr1-APC (108412, Biolegend), Cd19-APC-CY7 (6D5, Biolegend), B220-APC-CY7 (RA3-6B2, Biolegend).

Clc1cccc(Cl)c1CSc1nnc(-c2cnccn2)s1 [Yoda1, 2-[5-[[(2,6-Dichlorophenyl)methyl]thio]-1,3,4-thiadiazol-2-yl]-pyrazine]
Dnmt3b transcript expression (E11.5 AGM cells [1]): specifically stimulate
Gimap6 transcript expression (E11.5 AGM cells [1]): specifically stimulate
hematopoietic colony formation (endothelial-to-hematopoietic transition) (E11.5 AGM cells [2]): stimulates the endothelial-to-hematopoietic transition
